Activity calls are given as the source filed them. No cut-off for these calls is given here.
Columns and labels:
Type in all cases: nucleic-acid assay
Details in all cases: Bos taurus
Nucleic Acid [1] = test: Binding affinity to calf thymus DNA in Brittone-Robinson buffer at 50 uM at pH 7 in presence of NaCl by UV-vis spectroscopy
Nucleic Acid [2] = test: Binding affinity to calf thymus DNA in Brittone-Robinson buffer at 50 uM at pH 7 by UV-vis spectroscopy
Nucleic Acid [3] = test: Binding affinity to calf thymus DNA in Brittone-Robinson buffer at 50 uM at pH 3 by UV-vis spectroscopy
Nucleic Acid [4] = test: Binding affinity to calf thymus DNA in Brittone-Robinson buffer at 50 uM by UV-vis spectroscopy in presence of native DNA
Nucleic Acid [5] = test: Binding affinity to calf thymus DNA in Brittone-Robinson buffer at 50 uM by UV-vis spectroscopy in presence of denatured DNA
Nucleic Acid [6] = test: Binding affinity to calf thymus DNA at 50 uM by circular dichroism spectra
Nucleic Acid [7] = test: Binding affinity to calf thymus DNA at DNA/compound ratio 0.1 to 2 at pH 7 by measuring DNA viscosity
Nucleic Acid [8] = test: Binding affinity to calf thymus DNA assessed as hydrogen bonding
Nucleic Acid [9] = test: Binding affinity to calf thymus DNA assessed as partial intercalation
Nucleic Acid [10] = test: Ratio of danthron Kb to quinizarin Kb for calf thymus DNA

| SMILES | Activity (Nucleic Acid [1]) | Activity (Nucleic Acid [2]) | Activity (Nucleic Acid [3]) | Activity (Nucleic Acid [4]) | Activity (Nucleic Acid [5]) | Activity (Nucleic Acid [6]) | Activity (Nucleic Acid [7]) | Kb (Nucleic Acid [8]) | Kb (Nucleic Acid [9]) | Ratio (Nucleic Acid [10]) |
| --- | --- | --- | --- | --- | --- | --- | --- | --- | --- | --- |
| O=C1c2ccccc2C(=O)c2c(O)ccc(O)c21 | Active | Active | inactive | Active | Active | Active | Active | 1.66 ×10⁴ /M | 3.2 ×10⁷ /M | 5 |
| O=C1c2cccc(O)c2C(=O)c2c(O)cccc21 | Active | Active | inactive | Active | Active | Active | Active | 3.6 ×10⁴ /M | 7.2 ×10⁶ /M | – |

— ChEMBL document CHEMBL2146406, “DNA-binding study of anthraquinone derivatives using chemometrics methods” (Eur J Med Chem, 2011)
